ChEMBL document CHEMBL3352057, “Novel fluorinated pyrrolo[1,2-a]pyrazine-2,6-dione derivatives: synthesis and anticonvulsant evaluation in animal models of epilepsy” (Bioorg Med Chem, 2014)
The source made the active and inactive calls. No cut-off for these calls is given here.

The molecules below were run on Mus musculus (assay: Anticonvulsant activity in albino CF1 mouse assessed as protection against maximal electroshock-induced seizures at 100 mg/kg, ip measured after 0.25 hr). Conditions: not given.
Assay type: functional, organism-based
Parameters: dose 100 mg/kg
For `O=C1NC(=O)[C@@H]2CCCN2[C@H]1c1c(F)cccc1F` (mixture of isomers), the Activity was “Active”.

Each molecule was assayed on Mus musculus (assay: Anticonvulsant activity in albino CF1 mouse assessed as protection against maximal electroshock-induced seizures at 100 mg/kg, ip measured after 0.5 hr). Conditions: not given.
Assay type: functional, organism-based
Parameters: dose 100 mg/kg
For `O=C1NC(=O)[C@@H]2CCCN2[C@H]1c1c(F)cccc1F` (mixture of isomers), the Activity was “inactive”.

These molecules were tested on Mus musculus (assay: Anticonvulsant activity in albino CF1 mouse assessed as protection against maximal electroshock-induced seizures at 100 mg/kg, ip measured after 1 hr). Conditions: not given.
Assay type: functional, organism-based
Parameters: dose 100 mg/kg
In the case of `O=C1NC(=O)[C@@H]2CCCN2[C@H]1c1c(F)cccc1F` (mixture of isomers), the Activity is reported as “inactive”.

The molecules below were run on Mus musculus (assay: Anticonvulsant activity in albino CF1 mouse assessed as protection against maximal electroshock-induced seizures at 100 mg/kg, ip measured after 4 hrs). Conditions: not given.
Assay type: functional, organism-based
Parameters: dose 100 mg/kg
For `O=C1NC(=O)[C@@H]2CCCN2[C@H]1c1c(F)cccc1F` (mixture of isomers), the Activity was “inactive”.

These molecules were tested on Mus musculus (assay: Anticonvulsant activity in albino CF1 mouse assessed as protection against subcutaneous metrazol-induced seizures at 100 mg/kg, ip measured after 0.25 hr). Conditions: not given.
Assay type: functional, organism-based
Parameters: dose 100 mg/kg
`O=C1NC(=O)[C@@H]2CCCN2[C@H]1c1c(F)cccc1F` (mixture of isomers) was tested, and the Activity was “inactive”.

The molecules below were run on Mus musculus (assay: Anticonvulsant activity in albino CF1 mouse assessed as protection against subcutaneous metrazol-induced seizures at 100 mg/kg, ip measured after 0.5 hr). Conditions: not given.
Assay type: functional, organism-based
Parameters: dose 100 mg/kg
In the case of `O=C1NC(=O)[C@@H]2CCCN2[C@H]1c1c(F)cccc1F` (mixture of isomers), the Activity is reported as “inactive”.

Each molecule was assayed on Mus musculus (assay: Anticonvulsant activity in albino CF1 mouse assessed as protection against subcutaneous metrazol-induced seizures at 100 mg/kg, ip measured after 1 hr). Conditions: not given.
Assay type: functional, organism-based
Parameters: dose 100 mg/kg
For `O=C1NC(=O)[C@@H]2CCCN2[C@H]1c1c(F)cccc1F` (mixture of isomers), the Activity was “inactive”.

These molecules were tested on Mus musculus (assay: Anticonvulsant activity in albino CF1 mouse assessed as protection against subcutaneous metrazol-induced seizures at 100 mg/kg, ip measured after 4 hrs). Conditions: not given.
Assay type: functional, organism-based
Parameters: dose 100 mg/kg
In the case of `O=C1NC(=O)[C@@H]2CCCN2[C@H]1c1c(F)cccc1F` (mixture of isomers), the Activity is reported as “inactive”.

These molecules were tested on Mus musculus (assay: Neurotoxicity in albino CF1 mouse at 100 mg/kg, ip measured after 0.25 hr). Conditions: in vivo.
Assay type: toxicity, organism-based
Parameters: dose 100 mg/kg, route intraperitoneal
For `O=C1NC(=O)[C@@H]2CCCN2[C@H]1c1c(F)cccc1F` (mixture of isomers), the Activity was “Non-toxic”.

Each molecule was assayed on Mus musculus (assay: Neurotoxicity in albino CF1 mouse at 100 mg/kg, ip measured after 0.5 hr). Conditions: in vivo.
Assay type: toxicity, organism-based
Parameters: dose 100 mg/kg, route intraperitoneal
For `O=C1NC(=O)[C@@H]2CCCN2[C@H]1c1c(F)cccc1F` (mixture of isomers), the Activity was “Non-toxic”.

What follows are molecules tested on Mus musculus (assay: Neurotoxicity in albino CF1 mouse at 100 mg/kg, ip measured after 1 hr). Conditions: in vivo.
Assay type: toxicity, organism-based
Parameters: dose 100 mg/kg, route intraperitoneal
`O=C1NC(=O)[C@@H]2CCCN2[C@H]1c1c(F)cccc1F` (mixture of isomers) was tested, and the Activity was “Non-toxic”.

These molecules were tested on Mus musculus (assay: Neurotoxicity in albino CF1 mouse at 100 mg/kg, ip measured after 4 hrs). Conditions: in vivo.
Assay type: toxicity, organism-based
Parameters: dose 100 mg/kg, route intraperitoneal
`O=C1NC(=O)[C@@H]2CCCN2[C@H]1c1c(F)cccc1F` (mixture of isomers) was tested, and the Activity was “Non-toxic”.

Each molecule was assayed on Mus musculus (assay: Anticonvulsant activity in albino CF1 mouse assessed as protection against 32 mA current-induced seizures at 100 mg/kg, ip measured after 0.25 hr). Conditions: not given.
Assay type: functional, organism-based
Parameters: dose 100 mg/kg
`O=C1NC(=O)[C@@H]2CCCN2[C@H]1c1c(F)cccc1F` (mixture of isomers) was tested, and the Activity was “Active”.

Each molecule was assayed on Mus musculus (assay: Anticonvulsant activity in albino CF1 mouse assessed as protection against 32 mA current-induced seizures at 100 mg/kg, ip measured after 0.5 hr). Conditions: not given.
Assay type: functional, organism-based
Parameters: dose 100 mg/kg
`O=C1NC(=O)[C@@H]2CCCN2[C@H]1c1c(F)cccc1F` (mixture of isomers) was tested, and the Activity was “inactive”.

What follows are molecules tested on Mus musculus (assay: Anticonvulsant activity in albino CF1 mouse assessed as protection against 32 mA current-induced seizures at 100 mg/kg, ip measured after 1 hr). Conditions: not given.
Assay type: functional, organism-based
Parameters: dose 100 mg/kg
With `O=C1NC(=O)[C@@H]2CCCN2[C@H]1c1c(F)cccc1F` (mixture of isomers) the Activity was “inactive”.

The molecules below were run on Mus musculus (assay: Anticonvulsant activity in albino CF1 mouse assessed as protection against 32 mA current-induced seizures at 100 mg/kg, ip measured after 2 hrs). Conditions: not given.
Assay type: functional, organism-based
Parameters: dose 100 mg/kg
For `O=C1NC(=O)[C@@H]2CCCN2[C@H]1c1c(F)cccc1F` (mixture of isomers), the Activity was “inactive”.

These molecules were tested on Mus musculus (assay: Anticonvulsant activity in albino CF1 mouse assessed as protection against 32 mA current-induced seizures at 100 mg/kg, ip measured after 4 hrs). Conditions: not given.
Assay type: functional, organism-based
Parameters: dose 100 mg/kg
With `O=C1NC(=O)[C@@H]2CCCN2[C@H]1c1c(F)cccc1F` (mixture of isomers) the Activity was “inactive”.

Each molecule was assayed on Mus musculus (assay: Neurotoxicity in 32 mA current-induced seizure albino CF1 mouse model at 100 mg/kg, ip measured after 0.25 hr). Conditions: in vivo.
Assay type: toxicity, organism-based
Parameters: dose 100 mg/kg, route intraperitoneal
`O=C1NC(=O)[C@@H]2CCCN2[C@H]1c1c(F)cccc1F` (mixture of isomers) was tested, and the Activity was “Non-toxic”.

Each molecule was assayed on Mus musculus (assay: Neurotoxicity in 32 mA current-induced seizure albino CF1 mouse model at 100 mg/kg, ip measured after 0.5 hr). Conditions: in vivo.
Assay type: toxicity, organism-based
Parameters: dose 100 mg/kg, route intraperitoneal
For `O=C1NC(=O)[C@@H]2CCCN2[C@H]1c1c(F)cccc1F` (mixture of isomers), the Activity was “Non-toxic”.

What follows are molecules tested on Mus musculus (assay: Neurotoxicity in 32 mA current-induced seizure albino CF1 mouse model at 100 mg/kg, ip measured after 1 hr). Conditions: in vivo.
Assay type: toxicity, organism-based
Parameters: dose 100 mg/kg, route intraperitoneal
`O=C1NC(=O)[C@@H]2CCCN2[C@H]1c1c(F)cccc1F` (mixture of isomers) was tested, and the Activity was “Non-toxic”.

The molecules below were run on Mus musculus (assay: Neurotoxicity in 32 mA current-induced seizure albino CF1 mouse model at 100 mg/kg, ip measured after 2 hrs). Conditions: in vivo.
Assay type: toxicity, organism-based
Parameters: dose 100 mg/kg, route intraperitoneal
With `O=C1NC(=O)[C@@H]2CCCN2[C@H]1c1c(F)cccc1F` (mixture of isomers) the Activity was “Non-toxic”.

Each molecule was assayed on Mus musculus (assay: Neurotoxicity in 32 mA current-induced seizure albino CF1 mouse model at 100 mg/kg, ip measured after 4 hrs). Conditions: in vivo.
Assay type: toxicity, organism-based
Parameters: dose 100 mg/kg, route intraperitoneal
For `O=C1NC(=O)[C@@H]2CCCN2[C@H]1c1c(F)cccc1F` (mixture of isomers), the Activity was “Non-toxic”.
